Assay results taken from patent publication US7745493B2, “Methods of treating tardive dyskinesia and other movement disorders” (priority 1998, dated 2010).

Assays:
[1] = system: patients with tic-related symptoms; conditions: in vivo; cited from earlier work
[2] = system: person two with Parkinson's disease and peak-dose dyskinesia; assay: Case Report 3: peak-dose dyskinesia of treated Parkinson's disease; type: in vivo, human; conditions: Case 3; for effect on peak-dose dyskinesia: added to antiparkinson regime, memantine 10 mg three times a day, acamprosate 666 mg three times, then 333 mg four times a day, baclofen 30 and 60 mg daily, magnesium 300 mg three times a day
Procedure: The patient's Parkinson's disease was treated using levodopa/carbidopa and bromocriptine.
Prior to beginning treatment with acamprosate, the patient was on an antiparkinson treatment regime that consisted of 1 mg of pergolide three times a day, 5 mg of selegiline twice a day, and a combination of levodopa/carbidopa consisting of 550-600 mg of levodopa and 125-150 mg of carbidopa administered in divided doses.
The patient began acamprosate as an addition to the antiparkinson regime described above. Initially, the patient received 666 mg of acamprosate administered three times a day. Two weeks later the regime was adjusted such that the patient received 333 mg of acamprosate four times a day, taking one 333 mg pill with each daytime dose of 100 mg levodopa and 25 mg carbidopa. The patient's bedtime does of controlled-release levodopa-carbidopa (200 mg of levodopa and 50 mg of carbidopa) was continued, but were given without acamprosate. […] To confirm that the patient's improvement was due to the administration of acamprosate, the patient was taken off the acamprosate. […] During the period off acamprosate, an attempt was made to replace acamprosate with baclofen (a GABA-receptor agonist) at a total daily dose of 30 mg, and then with baclofen at a total daily dose of 60 mg.
Several months later, magnesium (300 mg elemental magnesium, as a mixed chelate), was added to the regimen. It was taken three times a day, together with a one of the patient's regular doses of levodopa/carbidopa. […] To establish whether the improvement was due to magnesium, the magnesium was stopped after several weeks.

[3] = system: person two with long-standing TD; assay: Case Report 1: clinical observation of TD with blepharospasm; type: in vivo, human; conditions: Case 1; for effect on involuntary movements of TD: clinical observation, acamprosate 333 mg four times a day
Procedure: Palliative treatment with alprazolam (an anxiolytic and GABA agonist via modulation; dosage 0.25 mg four times a day) and trihexyphenidyl (an anticholinergic antiparkinson drug that inhibits dopamine re-uptake at synapses; dosage 2 mg twice a day) was prescribed by another physician.
Initially, their other medications were maintained unchanged.
Nimodipine was discontinued, and the patient was begun on memantine at a dosage of 10 mg twice a day.
For the following 10 days they added 250 mg three times a day of chelated magnesium.

[4] = system: person one with long-standing TD; assay: Case Report 2: clinical observation of TD; type: in vivo, human; conditions: Case 2; acamprosate 666 mg three times daily added to memantine; magnesium oxide 250 mg three times a day added to acamprosate
Source text: person one had long-standing TD following decades of treatment with the neuroleptic drug perphenazine. Their involuntary movements comprised bilateral chorea of the upper extremities, plus writhing of the tongue and tongue-biting. Both of the latter movements led to a very sore tongue. In addition, the patient experienced impairment of their short-term memory, which was attributed primarily to cerebrovascular disease.
They also continued to have a sore tongue. […] In addition to memantine, the patient regularly took antiepileptic drugs (gabapentin and lamotrigine), antiplatelet agents (aspirin and ticlopidine), as well as medications for hypertension, glaucoma and gastrointestinal symptoms (isosorbide mononitrate, metoprolol, timolol eye drops and olsalazine).
The patient was placed on a treatment regime that included administration of 666 mg of acamprosate, three times daily. In this case, acamprosate was added to the patient's regimen, which continued to include memantine. […] Despite past evidence from formal testing that the patient had impaired short-term memory, they performed normally on a two-sentence memory task, which involved testing the patient's recall ability using two sentences containing 13 separate details. On the two-sentence memory task, within three attempts the patient was able to recall 9 details and, using a multiple choice format, was able to recall a total of 11 details. Recall of 9 details on the third attempt would be normal for a middle-aged adult, let alone one […].
After a full year on memantine and acamprosate, the memantine was discontinued, with little change in the patient's symptoms.
Magnesium oxide, 250 mg three times a day, was added, each dose being taken together with the acamprosate. […] The effect was definite: movements worsened when magnesium oxide was stopped and improved when it was restarted. After a month on magnesium, the dosage of acamprosate was increased to 666 mg four times a day, with 250 mg of magnesium oxide given together with each dose. […] The only residual sign of TD was a mild degree of involuntary movement of the hands.

[5] = system: patients with Meige syndrome; conditions: cited from earlier work

| Compound | effect on peak-dose dyskinesia [2] | effect on involuntary movements of TD ([3]; memantine 10 mg twice a day) | also measured |
| --- | --- | --- | --- |
| Clc1cccc(Cl)c1N=C1NCCN1 [clonidine] | – | – | patients showing clinically significant improvement of tic-related symptoms [1]: < 50%; side effects that limit use [1]: hypotension or sedation |
| NC(=O)N1c2ccccc2C=Cc2ccccc21 [carbamazepine] | did not appear to affect | – | – |
| CN[C@H]1CC[C@@H](c2ccc(Cl)c(Cl)c2)c2ccccc21 [sertraline] | did not appear to affect | either produced little benefit or were not tolerated | – |
| Cc1nnc2n1-c1ccc(Cl)cc1C(c1ccccc1)=NC2 [alprazolam] | – | no detectable effect | – |
| CC(C[N+](C)(C)C)OC(N)=O (stereo not shown) [bethanecol] | did not appear to affect | – | – |
| [O]=[Mg] [Magnesium oxide] | – | – | effect on involuntary movements of TD [4]: improved further |
| vitamin E | – | either produced little benefit or were not tolerated | – |
| medroxyprogesterone | did not appear to affect | – | – |
| NCC(CC(=O)O)c1ccc(Cl)cc1 (stereo not shown) [baclofen] | no beneficial effect | – | adverse effects ([2]; total daily dose 30 mg, then 60 mg): sedation and nausea |
| COc1cc2c(cc1OC)C1CC(=O)C(CC(C)C)CN1CC2 (stereo not shown) [Tetrabenazine] | – | – | patients with involuntary movements alleviated [5]: 4 of 6; undesirable side effects [5]: drowsiness, drooling and Parkinsonism |
| O=C1CC2(CCCC2)CC(=O)N1CCCCN1CCN(c2ncccn2)CC1 [buspirone] | – | either produced little benefit or were not tolerated | – |
| COCCOC(=O)C1=C(C)NC(C)=C(C(=O)OC(C)C)C1c1cccc([N+](=O)[O-])c1 (stereo not shown) [nimodipine] | – | – | reduction of involuntary movements ([3]; 30 mg four times a day): about 50%; time able to read text or music at a time ([3]; 30 mg four times a day): no more than 30 minutes; adverse effects ([3]; nimodipine 30 mg four times a day, memantine 10 mg twice a day): dizziness, lightheadedness, and palpitations |
| OC(CCN1CCCCC1)(c1ccccc1)C1CCCCC1 (stereo not shown) [Trihexyphenidyl, trihexyphenidyl] | – | discontinued without a change in their involuntary movements | – |
